# Structures can show the parent of a compound that is named as a salt.
# Legend:
# Hco-ACC-2 WT channel [1] = target: T1, Hco-ACC-2 WT channel (Haemonchus contortus, UniProt A0A219KWM7); assay: cell-based; details: EC50 ± standard error, n ≥ 5 oocytes
# T1 sequence (A0A219KWM7 18-443): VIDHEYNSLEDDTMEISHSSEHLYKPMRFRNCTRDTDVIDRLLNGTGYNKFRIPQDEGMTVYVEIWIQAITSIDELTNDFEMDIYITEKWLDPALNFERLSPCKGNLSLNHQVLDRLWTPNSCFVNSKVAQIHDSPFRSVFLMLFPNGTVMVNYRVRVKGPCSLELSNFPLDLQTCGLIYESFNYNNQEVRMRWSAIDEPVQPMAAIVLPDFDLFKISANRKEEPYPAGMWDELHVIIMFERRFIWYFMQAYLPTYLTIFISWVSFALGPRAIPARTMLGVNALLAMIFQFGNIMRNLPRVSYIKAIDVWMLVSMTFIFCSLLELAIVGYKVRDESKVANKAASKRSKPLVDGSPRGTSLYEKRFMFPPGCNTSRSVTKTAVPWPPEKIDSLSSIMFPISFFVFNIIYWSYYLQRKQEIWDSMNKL
# Hco-ACC-2 WT channel [2] = target: T1, Hco-ACC-2 WT channel; details: wild-type channel; partial = maximum response lower than 100% of ACh
Structure (SMILES),EC50 (Hco-ACC-2 WT channel [1]) [µM],full or partial agonist (Hco-ACC-2 WT channel [2])
"C[N+](C)(C)CCOC(N)=O [Carbachol, Carbamoylcholine Chloride]",43 ± 4,partial agonists
"CC(=O)OC(C)C[N+](C)(C)C (stereo not drawn) [Methacholine, Acetyl-β-methylcholine Chloride]",100 ± 2,full agonists
"CN1CCCN=C1/C=C/c1cccs1 [Pyrantel, Pyrantel Citrate Salt]",72 ± 4,partial agonists
"c1ccc([C@H]2CN3CCSC3=N2)cc1 [Levamisole, Levamisole Hydrochloride]",98 ± 4,partial agonists
CC(=O)OCC[N+](C)(C)C [Acetylcholine],,full agonists
"C[N+](C)(C)CCO [Choline, Choline Chloride]",1280 ± 35,
"CC(C[N+](C)(C)C)OC(N)=O (stereo not drawn) [Urecholine, Carbamyl-β-methylcholine chloride]",747 ± 22,partial agonists

# From publication PMC6287471 (International Journal for Parasitology: Drugs and Drug …, 2018)
